Assay results taken from patent publication US11814407B2, “Multiple coupling and oxidation method” (Roche Innovation Center Copenhagen A/S, priority 2017, dated 2023).
Entries after “also recorded” stand apart in the source; their conditions may differ.

Columns and labels:
[1] = Solubility of oxazaphospholidine phosphoramidite monomers in solvent, visual examination; format: physicochemical; conditions: for Solubility over 24 hours in MeCN with addition of pyridine: MeCN + 2.5% pyridine; for Solubility after 24 hours in MeCN: MeCN alone
Experimental: To a 1.5 mL vial was added 0.013 mmol of amidite after which the solid material was dissolved in 0.13 mL of solvent. Hereafter, the vial was capped, vortexed, and finally left at room temperature for 24 hours. Then, the dissolved material was visually examined regarding the solubility (FIG. 1). If the solution appeared cloudy or otherwise non-homogenous the solubility was set to “no”. If the solution appeared completely homogenous the solubility was set to “yes” (examination repeated after 24 hours).
Solubility of the following monomers was determined as per example 7.

[2] = Stability of amidite solutions by HPLC-MS (UV 254 nm, normalised to 0 hours); format: physicochemical
Experimental: Stability Determination Method: To complete the analysis the stability of the amidite was investigated using an Agilent 1100 series HPLC-MS with a gradient from 80% A (1% NH4OH in H2O) to 100% B (20% A in MeCN) and a Waters Xterra MS C18 2.1×100 mm column. The mass and UV peak of the mother compound was identified at 0 hours and at 24 hours. Hereafter, the relative stability compared to other by-products was reported by integrating the UV chromatogram (254 nm) and normalizing the area to the chromatogram recorded at 0 hours (FIG. 2).
To a 1.5 mL vial was added 0.013 mmol of amidite after which the solid material was dissolved in 0.13 mL of solvent (with and without Et3N, approximately 5-10 eq). Hereafter, the vial was capped, vortexed, and finally left at room temperature for 24 hours. To investigate the stability of the amidite an Agilent 1100 series HPLC-MS with a gradient from 80% A (1% NH4OH in H2O) to 100% B (20% A in MeCN) and a Waters Xterra MS C18 2.1×100 mm column was used. The mass and UV peak of the mother compound was identified at 0 hours and at 24 hours. Hereafter, the relative stability compared to other by-products was reported. This was again repeated after 48 hours.

SMILES: COc1ccc(C(OCC2OC(n3cnc4c(NC(=O)c5ccccc5)ncnc43)CC2OP2OC(c3ccccc3)C3CCCN32)(c2ccccc2)c2ccc(OC)cc2)cc1 [D-DNA A]
- Solubility over 24 hours in MeCN with addition of pyridine [1]: the solubility of the monomer is preserved
- Solubility after 24 hours in MeCN [1]: not soluble

SMILES: COc1ccc(C(OCC23COC(C(n4cnc5c(NC(=O)c6ccccc6)ncnc54)O2)C3OP2OC(c3ccccc3)C3CCCN32)(c2ccccc2)c2ccc(OC)cc2)cc1 [D-LNA A]
- Solubility over 24 hours in MeCN with addition of pyridine [1]: the solubility of the monomer is preserved
- Solubility after 24 hours in MeCN [1]: not soluble

SMILES: COc1ccc(C(OCC2OC(n3cnc4c(NC(=O)c5ccccc5)ncnc43)CC2OP2OC(c3ccccc3)C3CCCN32)(c2ccccc2)c2ccc(OC)cc2)cc1 [L-DNA A]
- Solubility over 24 hours in MeCN with addition of pyridine [1]: kept in solution; also recorded: the solubility of the monomer is preserved
- Solubility after 24 hours in MeCN [1]: not sufficient to keep the monomer in solution; also recorded: not soluble

SMILES: COc1ccc(C(OCC23COC(C(n4cnc5c(NC(=O)c6ccccc6)ncnc54)O2)C3OP2OC(c3ccccc3)C3CCCN32)(c2ccccc2)c2ccc(OC)cc2)cc1 [L-LNA A]
- Stability in solution ([2]; MeCN + Et3N (approximately 5-10 eq), after 24 hours): completely stable
- Stability in solution ([2]; MeCN + Et3N (approximately 5-10 eq), after 48 hours): the majority of the L-LNA A is preserved
- Stability in solution ([2]; MeCN only, after 24 hours, room temperature): most of the L-LNA A was degraded
- Stability in solution ([2]; MeCN only, after 48 hours, room temperature): completely degraded

SMILES: COc1ccc(C(OCC23COC(C(n4cnc5c(=O)[nH]c(N=CN(C)C)nc54)O2)C3OP2OC(c3ccccc3)C3CCCN32)(c2ccccc2)c2ccc(OC)cc2)cc1 [L-LNA G-DMF]
- Amidite left after 24 hours ([2]; DCM (best solvent), 24 hours, room temperature): 10%
- Stability in the solvents where the monomer is soluble ([2]; MeCN:DCM, DMF, DMSO, NMP, DCM, DCE, Toluene, 24 hours): tremendous instability
- Solubility in solvents ([1]; MeCN, MeCN:DCE, MeCN:Tol, MeCN:acetone, Dioxane, THF): unsoluble
- Solubility in solvents ([1]; MeCN:DCM, DMF, DMSO, NMP, DCM, DCE, Toluene): soluble
- Solubility in acetonitrile solvents ([1]; acetonitrile solvents): poorly soluble

SMILES: COc1ccc(C(OC[C@@]23CO[C@@H]([C@H](n4cnc5c(=O)[nH]c(NC(=O)C(C)C)nc54)O2)[C@@H]3O[P@]2O[C@H](c3ccccc3)[C@@H]3CCCN32)(c2ccccc2)c2ccc(OC)cc2)cc1 [L-LNA-G-iBu]
- Solubility in all solvents investigated ([1]; 12 different solvents): soluble in all solvents investigated
- Soluble after: 24 h MeCN ([1]; 24 h, MeCN, 0.013 mmol amidite in 0.13 mL solvent, room temperature): no
